Values quoted from earlier work as cited in patent publication EP0073093A1, “4' Halo-substituted sucrose derivatives” (TATE & LYLE PUBLIC LIMITED COMPANY, priority 1981, dated 1983).

Tests used:
[1] = qualitative

In the case of 2,1'-dichloro-2,1'- dideoxy derivative, the sweetness (qualitative, prior-art sucrose derivatives) is listed as “not sweet at all”.
For “2,6,1',6'-tetrachloro-2,6,1', 6'-tetradeoxy derivative”, the bittering power ([1]; comparable with that of quinine) is given as “potent bittering agent”.
For `O=C1NS(=O)(=O)c2ccccc21` [saccharin], the after-taste [1] is listed as “unpleasantly bitter after-taste” and the “times the sweetening power of sucrose” value (relative to sucrose) is listed as “about 200 times”.
